In brackets after ≈: the same amount, converted by molar mass. Where a SMILES comes first, the peptide text is derived from it.
Tests used:
Escherichia coli = assay: Antibacterial activity against Escherichia coli ATCC 25922 after 16 hrs by broth microdilution method; format: functional; conditions: ATCC 25922, 16 h
Staphylococcus aureus = assay: Antibacterial activity against Staphylococcus aureus ATCC 25923 after 16 hrs by broth microdilution method; format: functional; conditions: ATCC 25923, 16 h
Bacillus spizizenii = assay: Antibacterial activity against Bacillus subtilis ATCC 6633 after 16 hrs by broth microdilution method; format: functional; conditions: ATCC 6633, 16 h
[1] = Therapeutic index, ratio of HC50 for human erythrocytes to MIC for Staphylococcus aureus ATCC 25923; conditions: read-out: TI
[2] = Toxicity against human erythrocytes assessed as hemolysis after 1 hr by spectrophotometric analysis; format: cell-based, Erythrocyte
[3] = Therapeutic index, ratio of HC50 for human erythrocytes to MIC for Bacillus subtilis ATCC 6633; conditions: read-out: TI

N=C(N)NCCC[C@H](NC(=O)[C@H](CCCNC(=N)N)NC(=O)[C@@H](N)CCCNC(=N)N)C(=O)O (H-Arg-Arg-Arg-OH)
MIC (Escherichia coli): > 1300 µM | MIC (Staphylococcus aureus): > 1030 µM | MIC (Bacillus spizizenii): > 1030 µM

N=C(N)NCCC[C@H](N)C(=O)O [ARGININE]
MIC (Escherichia coli): > 2890 µM | MIC (Staphylococcus aureus): > 2890 µM | MIC (Bacillus spizizenii): > 2890 µM

C[C@H]1[C@H](C)CCC2(C(=O)O)CC[C@]3(C)C(=CC[C@@H]4[C@@]5(C)CC[C@H](OC(=O)CCc6cn(CC(=O)N[C@@H](CCCNC(=N)N)C(=O)N[C@@H](CCCNC(=N)N)C(=O)N[C@@H](CCCNC(=N)N)C(=O)N[C@@H](CCCNC(=N)N)C(=O)N[C@@H](CCCNC(=N)N)C(=O)O)nn6)C(C)(C)[C@@H]5CC[C@]43C)[C@H]12 (single isomer, unassigned)
MIC (Escherichia coli): > 88 µM | MIC (Staphylococcus aureus): 5.5 µM (≈ 7.8 µg/mL) | MIC (Bacillus spizizenii): 2.7 µM (≈ 3.83 µg/mL)

C[C@H]1[C@H](C)CC[C@]2(C(=O)O)CC[C@]3(C)C(=CC[C@@H]4[C@@]5(C)CC[C@H](OC(=O)CCc6cn(CC(=O)N[C@@H](CCCNC(=N)N)C(=O)O)nn6)C(C)(C)[C@@H]5CC[C@]43C)[C@H]12
selectivity ratio [1]: 2 | MIC (Escherichia coli): > 157 µM | HC50 at 1 h [2]: 158 µM | selectivity ratio [3]: 8 | MIC (Staphylococcus aureus): 78.6 µM (≈ 62.4 µg/mL) | MIC (Bacillus spizizenii): 19.6 µM (≈ 15.6 µg/mL)

C[C@H]1[C@H](C)CC[C@]2(C(=O)OCc3cn(CC(=O)N[C@@H](CCCNC(=N)N)C(=O)O)nn3)CC[C@]3(C)C(=CC[C@@H]4[C@@]5(C)CC[C@H](O)C(C)(C)[C@@H]5CC[C@]43C)[C@H]12
selectivity ratio [1]: 8 | MIC (Escherichia coli): > 166 µM | HC50 at 1 h [2]: 83 µM | selectivity ratio [3]: 16 | MIC (Staphylococcus aureus): 10.4 µM (≈ 7.82 µg/mL) | MIC (Bacillus spizizenii): 5.2 µM (≈ 3.91 µg/mL)

C[C@H]1[C@H](C)CCC2(C(=O)O)CC[C@]3(C)C(=CC[C@@H]4[C@@]5(C)CC[C@H](OC(=O)CCc6cn(CC(=O)N[C@@H](CCCNC(=N)N)C(=O)N[C@@H](CCCNC(=N)N)C(=O)N[C@@H](CCCNC(=N)N)C(=O)N[C@@H](CCCNC(=N)N)C(=O)N[C@@H](CCCNC(=N)N)C(=O)N[C@@H](CCCNC(=N)N)C(=O)N[C@@H](CCCNC(=N)N)C(=O)N[C@@H](CCCNC(=N)N)C(=O)O)nn6)C(C)(C)[C@@H]5CC[C@]43C)[C@H]12 (single isomer, unassigned)
selectivity ratio [1]: > 103 | MIC (Escherichia coli): > 66 µM | HC50 at 1 h [2]: > 424 µM | selectivity ratio [3]: > 103 | MIC (Staphylococcus aureus): 4.1 µM (≈ 7.74 µg/mL) | MIC (Bacillus spizizenii): 4.1 µM (≈ 7.74 µg/mL)

C[C@H]1[C@H](C)CC[C@]2(C(=O)O)CC[C@]3(C)C(=CC[C@@H]4[C@@]5(C)CC[C@H](OC(=O)CCc6cn(CC(=O)N[C@@H](CCCNC(=N)N)C(=O)N[C@@H](CCCNC(=N)N)C(=O)O)nn6)C(C)(C)[C@@H]5CC[C@]43C)[C@H]12
MIC (Escherichia coli): > 131 µM | MIC (Staphylococcus aureus): 8.2 µM (≈ 7.79 µg/mL) | MIC (Bacillus spizizenii): 4.1 µM (≈ 3.9 µg/mL)

H-RRRRR-OH
MIC (Escherichia coli): > 627 µM | MIC (Staphylococcus aureus): > 627 µM | MIC (Bacillus spizizenii): 313 µM

N=C(N)NCCC[C@H](NC(=O)[C@H](CCCNC(=N)N)NC(=O)[C@H](CCCNC(=N)N)NC(=O)[C@H](CCCNC(=N)N)NC(=O)[C@H](CCCNC(=N)N)NC(=O)[C@H](CCCNC(=N)N)NC(=O)[C@H](CCCNC(=N)N)NC(=O)[C@@H](N)CCCNC(=N)N)C(=O)O
MIC (Escherichia coli): 197 µM (≈ 250 µg/mL) | MIC (Staphylococcus aureus): 24.6 µM (≈ 31.2 µg/mL) | MIC (Bacillus spizizenii): 12.3 µM (≈ 15.6 µg/mL)

C=C(C)[C@@H]1CC[C@]2(C(=O)O)CC[C@]3(C)[C@H](CC[C@@H]4[C@@]5(C)CC[C@H](OC(=O)CCc6cn(CC(=O)N[C@@H](CCCNC(=N)N)C(=O)N[C@@H](CCCNC(=N)N)C(=O)N[C@@H](CCCNC(=N)N)C(=O)N[C@@H](CCCNC(=N)N)C(=O)N[C@@H](CCCNC(=N)N)C(=O)N[C@@H](CCCNC(=N)N)C(=O)N[C@@H](CCCNC(=N)N)C(=O)N[C@@H](CCCNC(=N)N)C(=O)O)nn6)C(C)(C)[C@@H]5CC[C@]43C)[C@@H]12
selectivity ratio [1]: > 103 | MIC (Escherichia coli): > 66 µM | HC50 at 1 h [2]: > 424 µM | selectivity ratio [3]: > 103 | MIC (Staphylococcus aureus): 4.1 µM (≈ 7.74 µg/mL) | MIC (Bacillus spizizenii): 4.1 µM (≈ 7.74 µg/mL)

C=C(C)[C@@H]1CC[C@]2(C(=O)O)CC[C@]3(C)[C@H](CC[C@@H]4[C@@]5(C)CC[C@H](OC(=O)CCc6cn(CC(=O)N[C@@H](CCCNC(=N)N)C(=O)O)nn6)C(C)(C)[C@@H]5CC[C@]43C)[C@@H]12
MIC (Escherichia coli): > 157 µM | HC50 at 1 h [2]: > 1010 µM | selectivity ratio [3]: > 51 | MIC (Staphylococcus aureus): > 157 µM | MIC (Bacillus spizizenii): 19.6 µM (≈ 15.6 µg/mL)
